Reference: DBAASP
Converted amounts (≈) assume the structure as drawn. “And” between values parts separate entries of the source, which are not always exact repeats. Equal values may be shown once.

Tests used:
Assay in all cases: ≥ marks a high value that may be exact or a test limit, other limits are often not marked, values filed in µg/mL are converted to µM
[1] = tested on: Yersinia pseudotuberculosis YPIII
[2] = tested on: Staphylococcus capitis 1
[3] = tested on: Candida albicans ATCC 10231
[4] = tested on: Bacillus megaterium Bm11
[5] = tested on: Staphylococcus aureus Cowan 1
[6] = tested on: Escherichia coli ATCC 25922
[7] = tested on: Klebsiella pneumoniae ATCC 43816
[8] = tested on: Escherichia coli NCTC 10418
[9] = tested on: Enterococcus faecalis NCTC 12697
[10] = tested on: Candida albicans NCYC 1467
[11] = tested on: Staphylococcus aureus NCTC 12493
[12] = tested on: Staphylococcus aureus NCTC 10788
[13] = tested on: Pseudomonas aeruginosa ATCC 27853
[14] = tested on: Escherichia coli ATCC 25726
[15] = tested on: Escherichia coli D31
[16] = tested on: Acinetobacter baumannii NM35
[17] = tested on: Candida albicans ATCC 90028
[18] = tested on: Streptococcus mutans ATCC 25175
[19] = tested on: Escherichia coli K-12
[20] = tested on: Acinetobacter baumannii NM109
[21] = tested on: Pseudomonas aeruginosa ATCC 15442
[22] = tested on: Staphylococcus aureus ATCC 25923
[23] = tested on: Acinetobacter baumannii NM124
[24] = tested on: Acinetobacter baumannii NM75
[25] = tested on: Acinetobacter baumannii
[26] = tested on: Staphylococcus aureus USA 300
[27] = tested on: Acinetobacter baumannii NM8
[28] = tested on: Escherichia coli CCT 1457
[29] = tested on: Bacillus cereus ATCC 11778
[30] = tested on: Staphylococcus aureus CCT 2580
[31] = tested on: Staphylococcus epidermidis RP62A/1
[32] = tested on: Klebsiella pneumoniae ATCC 700603
[33] = tested on: Stenotrophomonas maltophilia B32/4
[34] = tested on: Staphylococcus epidermidis RP62A
[35] = tested on: Serratia marcescens
[36] = tested on: Proteus mirabilis
[37] = tested on: Escherichia coli
[38] = tested on: Shigella dysenteriae
[39] = tested on: Salmonella typhimurium
[40] = tested on: Bacillus subtilis
[41] = tested on: Klebsiella pneumoniae
[42] = tested on: Candida albicans
[43] = tested on: Pseudomonas aeruginosa
[44] = tested on: Micrococcus luteus

Work on `CC[C@H](C)[C@H](NC(=O)CNC(=O)[C@H](CO)NC(=O)[C@H](CC(C)C)NC(=O)[C@@H](NC(=O)[C@H](CCCN=C(N)N)NC(=O)CNC(=O)[C@@H](NC(=O)[C@H](CC(C)C)NC(=O)[C@H](C)NC(=O)[C@H](CC(C)C)NC(=O)[C@@H](N)Cc1ccccc1)[C@@H](C)CC)C(C)C)C(=O)N[C@@H](CC(C)C)C(N)=O` [FLALIGRVLSGIL] yielded an MIC [1] of 20 µM (≈ 27.4 µg/mL), an MIC [2] of 2.5 µM (≈ 3.43 µg/mL) and an MIC [3] of 1.25 µM (≈ 1.71 µg/mL). It also gave an MIC [4] of 2.5 µM (≈ 3.43 µg/mL), an MIC [5] of 2.5 µM (≈ 3.43 µg/mL) and an MIC [6] of over 40 µM.
Compound `CC[C@H](C)[C@H](NC(=O)[C@H](C)NC(=O)[C@H](CO)NC(=O)[C@@H](NC(=O)[C@H](C)NC(=O)[C@H](CCCCN)NC(=O)[C@@H]1CCCN1C(=O)[C@@H](NC(=O)[C@H](CC(C)C)NC(=O)[C@H](CO)NC(=O)[C@H](CC(C)C)NC(=O)[C@@H](N)Cc1ccccc1)[C@@H](C)CC)[C@@H](C)CC)C(=O)N[C@@H](CO)C(=O)N[C@@H](C)C(=O)N[C@@H](CC(C)C)C(=O)N[C@@H](C)C(=O)N[C@@H](CC(N)=O)C(=O)N[C@@H](Cc1cnc[nH]1)C(=O)N[C@@H](Cc1ccccc1)C(N)=O` [FLSLIPKAISAISALANHF] has an MIC [7] of at least 256 µM, an MIC [8] of at least 64 µM and an MIC [9] of at least 64 µM. The MIC [10] was 8 µM (≈ 16.1 µg/mL), the MIC [11] was 16 µM (≈ 32.2 µg/mL) and the MIC [12] was 4 µM (≈ 8.05 µg/mL). It also gave an MIC [13] of over 512 µM.
For `CC[C@H](C)[C@H](NC(=O)CN)C(=O)N[C@@H](Cc1c[nH]c2ccccc12)C(=O)N[C@@H](CC(=O)O)C(=O)N[C@H](C(=O)N[C@H](C(=O)N[C@@H](CCCCN)C(=O)N[C@@H](CO)C(=O)N[C@@H](CCSC)C(=O)NCC(=O)N[C@@H](CCCCN)C(=O)N[C@H](C(=O)N[C@@H](Cc1ccccc1)C(=O)N[C@@H](C)C(=O)NCC(=O)N[C@@H](CCCCN)C(=O)N[C@H](C(=O)N[C@@H](CC(C)C)C(=O)N[C@@H](CCC(N)=O)C(=O)N[C@@H](CC(N)=O)C(=O)N[C@@H](CC(C)C)C(N)=O)[C@@H](C)CC)C(C)C)[C@@H](C)CC)[C@@H](C)O` [GIWDTIKSMGKVFAGKILQNL], the MIC [14] was 25 µM (≈ 58 µg/mL), the MIC [15] was at least 32 µM and the MIC [16] was 6 µM (≈ 13.9 µg/mL). It also gave an MIC [17] of 12.5 µM (≈ 29 µg/mL), an MIC [18] of at least 100 µM and an MIC [19] of 25 µM (≈ 58 µg/mL). The MIC [3] was 16 µM (≈ 37.1 µg/mL), the MIC [20] was 6 µM (≈ 13.9 µg/mL) and the MIC [21] was at least 100 µM. For the same compound, the MIC [22] was 25 µM and 22.6 µM, the MIC [23] was 6 µM (≈ 13.9 µg/mL) and the MIC [24] was 3 µM (≈ 6.96 µg/mL). It also gave an MIC [25] of 12.5 µM (≈ 29 µg/mL), an MIC [26] of 25 µM (≈ 58 µg/mL) and an MIC [27] of 6 µM (≈ 13.9 µg/mL).
`CC[C@H](C)[C@H](N)C(=O)N[C@@H](CC(=O)O)C(=O)N[C@@H](Cc1c[nH]c2ccccc12)C(=O)N[C@@H](CC(C)C)C(=O)N[C@@H](CCCCN)C(=O)N[C@@H](CC(C)C)C(=O)NCC(=O)N[C@@H](CCCCN)C(=O)N[C@@H](CCSC)C(=O)N[C@H](C(=O)N[C@@H](CCSC)C(=O)N[C@@H](CC(=O)O)C(=O)N[C@H](C(=O)N[C@@H](CC(C)C)C(N)=O)C(C)C)C(C)C` [IDWLKLGKMVMDVL] gave an MIC [21] of at least 301 µM, an MIC [28] of at least 37.3 µM and an MIC [29] of at least 37.3 µM. The MIC [30] was 18.7 µM (≈ 31 µg/mL).
`CC[C@H](C)[C@H](N)C(=O)N[C@@H](CC(C)C)C(=O)NCC(=O)N[C@@H](CCCCN)C(=O)N[C@@H](CC(C)C)C(=O)N[C@@H](CC(C)C)C(=O)N[C@@H](CO)C(=O)N[C@H](C(=O)N[C@@H](C)C(=O)N[C@@H](C)C(=O)N[C@@H](CCCCN)C(=O)N[C@@H](CC(C)C)C(=O)N[C@@H](CC(C)C)C(=O)N[C@@H](CO)C(=O)N[C@@H](CC(N)=O)C(=O)N[C@@H](CC(C)C)C(N)=O)[C@@H](C)O` [ILGKLLSTAAKLLSNL] showed an MIC [31] of 4 µM (≈ 6.62 µg/mL), an MIC [14] of at least 32 µM and an MIC [32] of 32 µM (≈ 52.9 µg/mL). It also gave an MIC [17] of 16 µM (≈ 26.5 µg/mL), an MIC [33] of at least 32 µM and an MIC [22] of 4 µM (≈ 6.62 µg/mL). The MIC [27] was 8 µM (≈ 13.2 µg/mL), the MIC [34] was 4 µM (≈ 6.62 µg/mL) and the MIC [13] was 32 µM (≈ 52.9 µg/mL).
Work on `CC[C@H](C)[C@H](NC(=O)[C@@H](N)C(C)C)C(=O)N1CCC[C@H]1C(=O)N[C@@H](Cc1ccccc1)C(=O)N[C@H](C(=O)N[C@@H](C)C(=O)N[C@@H](CO)C(=O)N[C@H](C(=O)N[C@@H](C)C(=O)N[C@@H](C)C(=O)N[C@@H](CCC(=O)O)C(=O)N[C@@H](CCSC)C(=O)N[C@@H](CCSC)C(=O)N[C@@H](Cc1cnc[nH]1)C(=O)N[C@@H](Cc1cnc[nH]1)C(=O)N[C@H](C(=O)N[C@@H](Cc1ccc(O)cc1)C(=O)N[C@H]1CSSC[C@@H](C(=O)O)NC(=O)[C@H](CCCN=C(N)N)NC(=O)[C@H](CCCCN)NC(=O)[C@H](CO)NC(=O)[C@H](C)NC(=O)[C@H](C)NC1=O)C(C)C)C(C)C)C(C)C` [VIPFVASVAAEMMHHVYCAASKRC] yielded an MIC [35] of at least 76.3 µM, an MIC [36] of at least 76.3 µM and an MIC [37] of over 76.3 µM. It also gave an MIC [38] of at least 76.3 µM, an MIC [39] of at least 76.3 µM and an MIC [40] of at least 76.3 µM. The MIC [41] was over 76.3 µM, the MIC [42] was 76.3 µM (≈ 200 µg/mL) and the MIC [43] was over 76.3 µM. It also gave an MIC [44] of 9.54 µM (≈ 25 µg/mL).
